Test results: PubChem BioAssay AID328 (DTP/NCI, 2004)
Where “and” joins values, the source holds several entries; their conditions need not be identical. Equal values may be shown once. Inconclusive results and toxic doses are left out.

Test system: BDF1 mice, P388 leukemia ip, median survival T/C
Experiment: NCI In Vivo Anticancer Drug Screen. Data for tumor model P388 Leukemia (intraperitoneal) in B6D2F1 (BDF1) mice
Conditions: endpoint: median survival time, higher = longer survival
Summary of the method: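 Steps: implant the tumour, treat one group with compound and another with vehicle, record survival, then divide treated by control.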

[1] = dose: 100.0 mg/kg/injection, schedule: Q01DX001 (ip), vehicle: saline with Tween-80
[2] = dose: 200.0 mg/kg/injection, schedule: Q01DX001 (ip), vehicle: saline with Tween-80
[3] = dose: 50.0 mg/kg/injection, schedule: Q01DX009 (ip), vehicle: saline with Tween-80
[4] = dose: 100.0 mg/kg/injection, schedule: Q04DX003 (ip), vehicle: saline with Tween-80
[5] = dose: 200.0 mg/kg/injection, schedule: Q04DX003 (ip), vehicle: saline with Tween-80
[6] = dose: 100.0 mg/kg/injection, schedule: Q01DX009 (ip), vehicle: saline with Tween-80
[7] = dose: 200.0 mg/kg/injection, schedule: Q01DX009 (ip), vehicle: saline with Tween-80
[8] = dose: 6.25 mg/kg/injection, schedule: Q01DX009 (ip), vehicle: saline
[9] = dose: 25.0 mg/kg/injection, schedule: Q04DX003 (ip), vehicle: saline with Tween-80
[10] = dose: 50.0 mg/kg/injection, schedule: Q04DX003 (ip), vehicle: saline with Tween-80
[11] = dose: 100.0 mg/kg/injection, schedule: Q01DX009 (ip), vehicle: saline
[12] = dose: 400.0 mg/kg/injection, schedule: Q01DX009 (ip), vehicle: saline
[13] = dose: 150.0 mg/kg/injection, schedule: Q01DX009 (ip), vehicle: saline
[14] = dose: 100.0 mg/kg/injection, schedule: Q01DX009 (ip), vehicle: Klucel (hydroxypropylcellulose) (HPC)
[15] = dose: 100.0 mg/kg/injection, schedule: Q04DX003 (ip), vehicle: Klucel (hydroxypropylcellulose) (HPC)
[16] = dose: 200.0 mg/kg/injection, schedule: Q01DX009 (ip), vehicle: Klucel (hydroxypropylcellulose) (HPC)
[17] = dose: 200.0 mg/kg/injection, schedule: Q04DX003 (ip), vehicle: Klucel (hydroxypropylcellulose) (HPC)
[18] = dose: 400.0 mg/kg/injection, schedule: Q04DX003 (ip), vehicle: Klucel (hydroxypropylcellulose) (HPC)

Compound: CC1CCCC(c2ccccc2)C1 (centres undefined)
- T/C (dose: 50.0 mg/kg/injection, schedule: Q01DX001 (ip), vehicle: saline with Tween-80): 109 % of control
- T/C [1]: 109 % of control
- T/C [2]: 109 % of control

Compound: O=C(O)CCSc1ncnc2nc[nH]c12
- T/C (dose: 12.5 mg/kg/injection, schedule: Q01DX009 (ip), vehicle: saline with Tween-80): 104 % of control
- T/C (dose: 25.0 mg/kg/injection, schedule: Q01DX009 (ip), vehicle: saline with Tween-80): 109 % of control
- T/C [3]: 109 % of control
- T/C [4]: 100 % of control
- T/C [5]: 113 % of control
- T/C (dose: 400.0 mg/kg/injection, schedule: Q04DX003 (ip), vehicle: saline with Tween-80): 104 % of control

Compound: COC(=O)/C=C1\Sc2ccc(Cl)cc2NC1=O
- T/C [3]: 93 % of control
- T/C [6]: 86 % of control
- T/C [7]: 93 % of control

Compound: C1CC[N-]CC1.C1CC[N-]CC1.C1CC[N-]CC1.C1CC[N-]CC1.[Pt+4]
- T/C [8]: 110 % of control
- T/C (dose: 12.5 mg/kg/injection, schedule: Q01DX009 (ip), vehicle: saline): 100 % of control

Compound: Cc1ccc2ccccc2c1Cc1c(C=O)[nH]c(=S)[nH]c1=O
- T/C [4]: 104 % of control
- T/C [5]: 122 % of control

Compound: COc1cc(Cc2nccc3cc(OC)c(OC)cc23)c(C(C)=O)c(OC)c1
- T/C (dose: 10.0 mg/kg/injection, schedule: Q01DX009 (ip), vehicle: saline): 157 % of control and 190 % of control
- T/C (dose: 20.0 mg/kg/injection, schedule: Q01DX009 (ip), vehicle: saline): 163 % of control and 170 % of control
- T/C (dose: 25.0 mg/kg/injection, schedule: Q04DX003 (ip), vehicle: saline): 154 % of control
- T/C (dose: 50.0 mg/kg/injection, schedule: Q04DX003 (ip), vehicle: saline): 157 % of control
- T/C (dose: 100.0 mg/kg/injection, schedule: Q04DX003 (ip), vehicle: saline): 203 % of control and 206 % of control
- T/C (dose: 200.0 mg/kg/injection, schedule: Q04DX003 (ip), vehicle: saline): 93 % of control

Compound: OCCOCCOCCN1CCN(CCCN2c3ccccc3Sc3ccc(C(F)(F)F)cc32)CC1
- T/C (dose: 0.79 mg/kg/injection, schedule: Q01DX009 (ip), vehicle: saline): 91 % of control
- T/C [8]: 112 % of control

Compound: CCCCCCCCC(=O)N(C)OC
- T/C [9]: 104 % of control
- T/C [10]: 100 % of control
- T/C [4]: 100 % of control

Compound: O=[N+]([O-])c1ccc(NS(=O)(=O)c2cc(Cl)ccc2Cl)c([N+](=O)[O-])c1
- T/C [3]: 105 % of control
- T/C [6]: 102 % of control
- T/C [7]: 110 % of control

Compound: C=CCn1c(=O)n(CC=C)c(=O)n(CC=C)c1=O
- T/C (dose: 100.0 mg/kg/injection, schedule: Q04DX003 (ip), vehicle: alcohol): 100 % of control
- T/C (dose: 200.0 mg/kg/injection, schedule: Q04DX003 (ip), vehicle: alcohol): 104 % of control
- T/C (dose: 400.0 mg/kg/injection, schedule: Q04DX003 (ip), vehicle: alcohol): 109 % of control

Compound: C=C1C(=O)CCC1C(=O)O (centres undefined)
- T/C [11]: 100 % of control and 109 % of control
- T/C (dose: 178.0 mg/kg/injection, schedule: Q04DX003 (ip), vehicle: saline): 106 % of control
- T/C (dose: 266.0 mg/kg/injection, schedule: Q04DX003 (ip), vehicle: saline): 108 % of control
- T/C [12]: 150 % of control and 154 % of control and 162 % of control
- T/C (dose: 400.0 mg/kg/injection, schedule: Q04DX003 (ip), vehicle: saline): 123 % of control
- T/C (dose: 600.0 mg/kg/injection, schedule: Q01DX009 (ip), vehicle: saline): 170 % of control and 182 % of control
- T/C (dose: 900.0 mg/kg/injection, schedule: Q01DX009 (ip), vehicle: saline): 175 % of control

Compound: O=C(Nc1ccc(NC2=NCCN2)cc1)c1ccc(C(=O)Nc2ccc(NC3=NCCN3)cc2)cc1
- T/C (dose: 2.0 mg/kg/injection, schedule: Q01DX010 (ip), vehicle: saline): 165 % of control and 180 % of control
- T/C (dose: 4.0 mg/kg/injection, schedule: Q01DX010 (ip), vehicle: saline): 260 % of control and 205 % of control
- T/C (dose: 8.0 mg/kg/injection, schedule: Q01DX010 (ip), vehicle: saline): 260 % of control and 285 % of control
- T/C (dose: 16.0 mg/kg/injection, schedule: Q01DX010 (ip), vehicle: saline): 105 % of control and 110 % of control

Compound: CC(C)N1c2c(nc(N)[nH]c2=O)NCC1CNc1ccc(C(=O)NC(CCC(=O)O)C(=O)O)cc1 (centres undefined)
- T/C [11]: 105 % of control
- T/C [13]: 90 % of control
- T/C (dose: 200.0 mg/kg/injection, schedule: Q01DX009 (ip), vehicle: saline): 97 % of control
- T/C (dose: 300.0 mg/kg/injection, schedule: Q01DX009 (ip), vehicle: saline): 93 % of control
- T/C [12]: 110 % of control

Compound: O=C(Cc1ccccc1)OCC#CC#CCOC(=O)Cc1ccccc1
- T/C [14]: 100 % of control
- T/C [15]: 90 % of control
- T/C [16]: 104 % of control
- T/C [17]: 104 % of control
- T/C (dose: 400.0 mg/kg/injection, schedule: Q01DX009 (ip), vehicle: Klucel (hydroxypropylcellulose) (HPC)): 100 % of control
- T/C [18]: 109 % of control

Compound: CCOc1ccc2[nH]c(=S)sc2c1
- T/C (dose: 100.0 mg/kg/injection, schedule: Q01DX001 (ip), vehicle: Klucel (hydroxypropylcellulose) (HPC)): 116 % of control
- T/C (dose: 200.0 mg/kg/injection, schedule: Q01DX001 (ip), vehicle: Klucel (hydroxypropylcellulose) (HPC)): 91 % of control
- T/C (dose: 400.0 mg/kg/injection, schedule: Q01DX001 (ip), vehicle: Klucel (hydroxypropylcellulose) (HPC)): 95 % of control

Compound: OC1CCC2(CC1)Cc1ccccc1C2O (centres undefined)
- T/C [1]: 114 % of control
- T/C [2]: 119 % of control
- T/C (dose: 400.0 mg/kg/injection, schedule: Q01DX001 (ip), vehicle: saline with Tween-80): 119 % of control

Compound: CC(=O)N1CCCC1=O
- T/C [14]: 95 % of control
- T/C [15]: 100 % of control
- T/C [16]: 86 % of control
- T/C [17]: 100 % of control
- T/C [18]: 100 % of control

Compound: CC1C[N-]1.CC1C[N-]1.[Cl][Pt+2][Cl] (centres undefined)
- T/C (dose: 25.0 mg/kg/injection, schedule: Q01DX009 (ip), vehicle: saline): 100 % of control
- T/C (dose: 50.0 mg/kg/injection, schedule: Q01DX009 (ip), vehicle: saline): 111 % of control
- T/C [11]: 101 % of control
- T/C [13]: 100 % of control

Compound: Cc1ccc(NC(=S)NCCc2ccccn2)cc1C
- T/C [3]: 101 % of control and 124 % of control
- T/C [6]: 100 % of control and 102 % of control
- T/C [7]: 104 % of control and 106 % of control
- T/C (dose: 400.0 mg/kg/injection, schedule: Q01DX009 (ip), vehicle: saline with Tween-80): 100 % of control

Compound: CCCCCCNP(=O)(N1CC1)N1CC1
- T/C (dose: 16.5 mg/kg/injection, schedule: Q04DX003 (ip), vehicle: saline with Tween-80): 168 % of control
- T/C [9]: 227 % of control
- T/C (dose: 37.5 mg/kg/injection, schedule: Q04DX003 (ip), vehicle: saline with Tween-80): 272 % of control

Compound: [O]=[Sb]([c]1ccccc1)([c]1ccccc1)[c]1ccccc1
- T/C [9]: 106 % of control
- T/C [10]: 101 % of control
- T/C [4]: 114 % of control

Compound: N#Cc1c(F)c(F)c(C#N)c(F)c1F
- T/C (dose: 1.25 mg/kg/injection, schedule: Q01DX009 (ip), vehicle: Klucel (hydroxypropylcellulose) (HPC)): 100 % of control
- T/C (dose: 2.5 mg/kg/injection, schedule: Q01DX009 (ip), vehicle: Klucel (hydroxypropylcellulose) (HPC)): 104 % of control
- T/C (dose: 5.0 mg/kg/injection, schedule: Q01DX009 (ip), vehicle: Klucel (hydroxypropylcellulose) (HPC)): 108 % of control
- T/C (dose: 10.0 mg/kg/injection, schedule: Q01DX009 (ip), vehicle: Klucel (hydroxypropylcellulose) (HPC)): 104 % of control
